Where two headings read alike, the source gives them in different places.
How the values were obtained:
[1] = test system: rat glioma C6 cells; test: Cytotoxicity assay (XTT colorimetric), C6 cells; type: cell-based
[2] = test system: human hepatoma G2 cells; test: Cytotoxicity assay (XTT colorimetric), Hep G2; type: cell-based
[3] = test system: hepatitis B virus transfected hepatoma cell lines, HepG 2.2.15 cells; test: Cytotoxicity assay, 2.2.15 cells; type: cell-based, human

Compound | IC50 ([1]; 48 h of drug exposure) | IC50 ([2]; 48 h of drug exposure) | IC50 ([3]; 48 h of drug exposure) | IC50 [1] | IC50 [2] | IC50 [3]
CC(C)CNc1cccc2c1C(=O)c1c(NCC(C)C)cccc1C2=O [Vd] | 1.32 ± 0.01 µM | > 20 µM | > 20 µM |  |  | 
CCCCCCNc1cccc2c1C(=O)c1c(NCCCCCC)cccc1C2=O [Ve] |  |  |  | > 20 µM | > 20 µM | > 20 µM
CC(C)Nc1cccc2c1C(=O)c1c(NC(C)C)cccc1C2=O [Vf, 1,8-Bis(isopropylamine)-anthraquinone] | 1.24 ± 0.01 µM | > 20 µM | > 20 µM |  |  | 
O=C1c2cccc(NCCO)c2C(=O)c2c(NCCO)cccc21 [Vg] |  |  |  | 0.02 ± 0.01 µM | > 20 µM | > 20 µM
O=C1c2cccc(NCCCO)c2C(=O)c2c(NCCCO)cccc21 [Vh] | 1 ± 0.01 µM | > 20 µM | > 20 µM |  |  | 
O=C1c2cccc(NCCCCO)c2C(=O)c2c(NCCCCO)cccc21 [Vi] | 0.41 ± 0.02 µM | 1.65 µM | > 20 µM |  |  | 
CN(C)CCNc1cccc2c1C(=O)c1c(NCCN(C)C)cccc1C2=O [Vj] | 0.15 ± 0.04 µM | 0.16 µM | 8.55 µM |  |  | 
NCCCNc1cccc2c1C(=O)c1c(NCCCN)cccc1C2=O [Vk] | > 20 µM | 11.4 ± 0.17 µM | > 20 µM |  |  | 
NCCCCNc1cccc2c1C(=O)c1c(NCCCCN)cccc1C2=O [Vl] | > 20 µM | 11.5 ± 0.34 µM | > 20 µM |  |  | 
O=C1c2cccc(NC3CCCC3)c2C(=O)c2c(NC3CCCC3)cccc21 [Vn] | > 20 µM | > 20 µM | > 20 µM |  |  | 
O=C1c2cccc(NCc3ccccc3)c2C(=O)c2c(NCc3ccccc3)cccc21 [Vo] | 1.66 ± 0.09 µM | > 20 µM | > 20 µM |  |  | 
O=C1c2cccc(NCCc3ccccc3)c2C(=O)c2c(NCCc3ccccc3)cccc21 [Vp] | > 20 µM | > 20 µM | > 20 µM |  |  | 
